Experiment [1] concerns the target T1, Carbonic anhydrase 2 (Homo sapiens, UniProt P00918). The experiment in a line: Inhibition of human carbonic anhydrase 2 esterase activity by spectrophotometry.
The target in experiment [2] is T1, Carbonic anhydrase 2. The experiment in a line: Inhibition of human carbonic anhydrase 2 esterase activity by non-competitive Lineweaver-Burke plot.
Experiment [3] deals with T2, Carbonic anhydrase 1 (Homo sapiens, UniProt P00915). Kind of experiment: Inhibition of human carbonic anhydrase 1 esterase activity by spectrophotometry.
T2 sequence (P00915 whole entry): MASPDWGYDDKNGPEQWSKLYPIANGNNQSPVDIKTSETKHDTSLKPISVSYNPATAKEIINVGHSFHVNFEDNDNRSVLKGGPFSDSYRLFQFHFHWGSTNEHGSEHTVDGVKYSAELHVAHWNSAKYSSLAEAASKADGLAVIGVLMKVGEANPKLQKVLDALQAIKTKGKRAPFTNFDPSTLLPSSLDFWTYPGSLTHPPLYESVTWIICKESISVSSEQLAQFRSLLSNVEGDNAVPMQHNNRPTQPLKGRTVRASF
In experiment [4] the target is T2, Carbonic anhydrase 1. The experiment in a line: Inhibition of human carbonic anhydrase 1 esterase activity by noncompetitive Lineweaver-Burke plot.
The target of experiment [5] is T2, Carbonic anhydrase 1. The experiment in a line: Inhibition of human carbonic anhydrase 1 esterase activity by uncompetitive Lineweaver-Burke plot.
Experiment [6] concerns the target T1, Carbonic anhydrase 2. The experiment in a line: Inhibition of human carbonic anhydrase 2 esterase activity by competitive Lineweaver-Burke plot.
The target of experiment [7] is T2, Carbonic anhydrase 1. The experiment in a line: Inhibition of human carbonic anhydrase 1 esterase activity by competitive Lineweaver-Burke plot.
Experiment [8] deals with T1, Carbonic anhydrase 2. The experiment in a line: Inhibition of human carbonic anhydrase 2 esterase activity by uncompetitive Lineweaver-Burke plot.

pIC50, pKi: −log10 of the molar value.

Turning to `O=C(O)c1cc(/N=N/c2ccc(S(=O)(=O)Nc3ccccn3)cc2)ccc1O` [SULFASALAZINE], the results for the pIC50 on Carbonic anhydrase 2 [1] and at Carbonic anhydrase 1 [3] were 5.35 and 5.52, respectively. Further, the pKi at Carbonic anhydrase 2 [2] is 5.06; on Carbonic anhydrase 1 [4], 5.16.
At Carbonic anhydrase 1 [3], `CC(=O)Oc1ccccc1C(=O)O` [ASPIRIN] had a pIC50 of 2.57. The pKi on Carbonic anhydrase 1 [4] is 2.12.
Turning to `O=C(O)c1ccc(S(=O)(=O)O)cc1O`, the pIC50 is 3.14 against Carbonic anhydrase 2 [1] and 3.54 on Carbonic anhydrase 1 [3]. Further, the pKi on Carbonic anhydrase 1 [5] was 3.32; on Carbonic anhydrase 2 [6], 2.97.
At Carbonic anhydrase 1 [3], `O=C(O)c1cc(-c2ccc(F)cc2F)ccc1O` [DIFLUNISAL] had a pIC50 of 5.47. The molecule further had a pKi at Carbonic anhydrase 1 [4] of 5.07.
`O=C(O)c1cc(Cl)ccc1O` [5-CHLOROSALICYLIC ACID] gave a pIC50 against Carbonic anhydrase 1 [3] of 5.39. The same molecule had a pKi at Carbonic anhydrase 1 [5] of 5.38.
Regarding `O=C(O)c1cc(S(=O)(=O)O)ccc1O` [SULFOSALICYLIC], the pIC50 was 3.54 against Carbonic anhydrase 2 [1] and 3.38 against Carbonic anhydrase 1 [3]. The results for the pKi on Carbonic anhydrase 2 [2] and at Carbonic anhydrase 1 [7] were 2.72 and 3.11, respectively.
Take `Cc1cccc(C(=O)O)c1O` [HYDROXYTOLUIC ACID]: the pIC50 on Carbonic anhydrase 2 [1] was 2.33; against Carbonic anhydrase 1 [3], 2.51. Further, the pKi at Carbonic anhydrase 1 [4] was 1.94; on Carbonic anhydrase 2 [8], 1.98.
Take `Nc1ccc(C(=O)O)c(O)c1` [AMINOSALICYLIC ACID]: the pIC50 is 3.12 on Carbonic anhydrase 2 [1] and 3.89 against Carbonic anhydrase 1 [3]. Moreover, the pKi on Carbonic anhydrase 2 [2] was 2.91; on Carbonic anhydrase 1 [4], 3.62.
`O=C(O)c1c(O)cc([N+](=O)[O-])cc1[N+](=O)[O-]` had a pIC50 at Carbonic anhydrase 1 [3] of 5.12. Moreover, at Carbonic anhydrase 1 [4], the pKi was 4.83.

As usually defined, the pIC50 is −log10 of the IC50, conventionally taken in molar units. One may read the pKi as the negative decadic logarithm of the Ki, by convention in mol/L.
